Patent US5223411A, “Nonionic surfactants having a carbamoyl group and process for treatment of a proteins containing medium using the same” (Centre National de la Recherche Scientifique (CNRS), priority 1990, dated 1993)
“And” between values parts separate entries of the source, which are not always exact repeats. Equal entries are not always repeated. Where two headings read alike, the source gives them in different places.

What was measured:
[1] = test system: P. multocida NADH oxidase; test: Enzyme assay, NADH oxidase; format: biochemical, Pasteurella multocida; conditions: for Km: read-out: Km ± SD
Experimental: (§1) P. multocida succinate dehydrogenase was assayed as described by Osborn et al in […] Na phosphate buffer (pH 7.4) containing 10 mM KCN, Na succinate (concentration range: 0.25 to 25 mM), 30 ug of thiazolyl blue, and 10 μg of phenazine methosulfate per milliliter. The samples contained 25, 50, or 100 μg of plasma membrane protein per milliliter and the absorbance at 550 nm was recorded for 10 min at 25° C.P. multocida NADH oxidase was assayed in 50 mM Tris-HCl buffer (pH 8.0) containing 0.2 mM dithiothreitol and 0.12 mM NADH. The samples contained 50,75, or 100 μg of plasma membrane protein per milliliter and the absorbance at 340 nm was recorded as above. The activity of the soluble form of Escherichia coli β-lactamase was measured by using Nitrocefin as substrate and by monitoring the rate of increase in the absorbance at 488 nm for 3 min at 25° C. One milliliter of 20 mM Na phosphate buffer (pH 7.4) contained Nitrocefin (concentration range: 5 to 20 uM) and 0.76 ug (i.e., 2×10^-3 units) of β-lactamase.
(§2) The four enzyme activities were measured in the absence of surfactants and in the presence of 3 or 30 mM HECAMEG. Controls were also performed with 35 mM SDS. Km and V max were determined from Lineweaver-Burk plots, each point being the average of three estimations.

[2] = test system: Escherichia coli β-lactamase; test: Enzyme assay, β-lactamase (Nitrocefin substrate); format: biochemical; conditions: for Km: read-out: Km ± SD
Experimental: as §1, §2

[3] = target: T1, Bovine milk lactoperoxidase (Bos taurus, UniProt P80025); test: Enzyme assay, lactoperoxidase (o-dianisidine substrate); format: biochemical
T1 construct: from tissue; host or cells: bovine milk
Experimental: Bovine milk lactoperoxidase was assayed according to George except that o-dianisidine was used as the substrate instead of gaiacol. One milliliter of 20 mM Na phosphate buffer (pH 7.4) contained […] (concentration range: 0.06 to 0.9 mM) 1 mM o-dianisidine, and 25×10^-3 μg (i.e., 1.15×10^-3 units) of lactoper oxidase. The absorbance at 435 nm was recorded as for β-lactamase.
as §2

bacteriorhodopsin = target: T2, bacteriorhodopsin (Halobacterium salinarum, UniProt P02945); test: Absorbance spectrum of bacteriorhodopsin; design: species or system H. halobium; conditions: native 558 nm
T2 construct: The untrated (native) purple membrane of H. halobium; endogenous in cells; host or cells: Halobacterium halobium R1, purified purple membrane
T2 sequence (P02945 14-262): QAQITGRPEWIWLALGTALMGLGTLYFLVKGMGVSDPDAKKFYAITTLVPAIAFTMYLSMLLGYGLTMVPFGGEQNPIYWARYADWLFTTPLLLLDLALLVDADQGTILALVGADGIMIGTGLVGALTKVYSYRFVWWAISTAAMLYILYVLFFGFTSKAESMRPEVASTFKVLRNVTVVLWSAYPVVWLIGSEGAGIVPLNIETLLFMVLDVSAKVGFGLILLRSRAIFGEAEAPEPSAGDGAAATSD
Experimental: Absorbance of dark-adapted bacteriorhodopsin was recorded between 350 and 700 nm. […] When the membrane was solubilized with 1% SDS, leading to the extensive denaturation of bacteriorhodopsin, the absorbance at 558 nm was lost to the benefit of a new maximum at 390 nm, corresponding to free retinal dissolved in SDS. These two spectra were thus representative, respectively, of the native and denatured forms of bacteriorhodopsin. Upon extraction with HECAMEG, the absorption spectrum of the protein was similar to that of the native state protein with, however, a slight blue shift in the absorption maximum (λmax=550 nm). Some absorption was also recorded at 390 nm, but it was much lower than that in SDS, even when HECAMEG was used at concentrations up to 0.1 M. Because of the scatering of light by membrane particles, the 390-nm peak could not be observed in untreated samples.

[4] = test system: P. multocida succinate dehydrogenase; test: Enzyme assay, succinate dehydrogenase; format: biochemical, Pasteurella multocida; conditions: for Km: read-out: Km ± SD
Experimental: as §1, §2

[5] = CMC, spectrofluorometry (technique of Vendittis et al.); format: physicochemical; conditions: for CMC: spectrofluorometry at 4° and 20° C.
Experimental: (§3) The CMC of HECAMEG was colorimetrically determined with the iodine method of Ross and Olivier and the Coomassie blue G method of Rosenthal and Koussaie and spectrofluorometrically with the technique of Vendittis et al. In the latter case, excitation was performed at 370 nm and emission recorded at 490 nm.
(§4) The CMC of the detergent was estimated by three distinct spectrophotometric methods of OG (n-octylα-D glucopyranoside) was used for comparison. The iodine spectrophotometric assay indicated a CMC of 17 mM while values of 14.5 and 15 mM were obtained with Coomassie blue G, and 19.5 mM was obtained by spectrofluorometry at 4° and 20° C. The second method was not reliable with OG, while the two other methods indicated for this surfactant, as expected, a CMC of 25 mM.

[6] = CMC, iodine method of Ross and Olivier; format: physicochemical; conditions: iodine spectrophotometric assay
Experimental: as §3, §4

[7] = stated for comparison; cited from earlier work
[8] = Solubility in water, usual buffers and organic solvents; format: physicochemical
[9] = Detergent dialysis (Lipoprep apparatus); format: physicochemical; conditions: 30 mM in 50 mM Na phosphate pH 7.4, 5 kDa cutoff membranes, 25° C.
Experimental: Dialysis experiments with HECAMEG were performed with the Lipoprep apparatus using a three-compartment Teflon cell with two cellulose dialysis membranes (molecular mass cutoff 5 kDa). The central compartment was filled with 8 ml of 30 mM HECAMEG in 50 mM Na phosphate buffer, pH 7.4. The same buffer, but without detergent circulated through the two side compartment for 24 h at 25° C. Dialysis speed was estimated by measuring HECAMEG concentration within the central cell.
The dialyzability of HECAMEG was estimated by the use of the Lipoprep dialysis system under conditions corresponding to those used for the preparation of liposomes. […] Indeed, the concentration of HECAMEG in the central compartment of the cell dropped by 50% upon 3 h of dialysis and the surfactant was no longer detected after about 18 h.

spiralin = target: T3, spiralin (Spiroplasma melliferum, UniProt P21625); conditions: crossed immunoelectrophoresis, rabbit antibodies against S. melliferum membrane
T3 construct: Spiroplasma melliferum B88 was cultivated and membranes were purified as described; endogenous in cells; host or cells: Spiroplasma melliferum B88, purified membranes
T3 sequence (P21625 24-242): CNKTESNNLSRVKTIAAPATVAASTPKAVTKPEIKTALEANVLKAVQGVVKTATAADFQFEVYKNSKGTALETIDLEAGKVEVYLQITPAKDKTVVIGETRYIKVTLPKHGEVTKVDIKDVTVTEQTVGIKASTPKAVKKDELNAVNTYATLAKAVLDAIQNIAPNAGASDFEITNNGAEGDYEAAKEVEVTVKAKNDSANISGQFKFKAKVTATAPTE
Experimental: Antibodies directed against the S. melliferum membrane were prepared in rabbits as described. The hyperimmune sera were filtered through 0.45-μm-pore membranes and stored at -25° C. Crossed immunoelectrophoresis was performed according to the method of Laurell in 1% agarose gel in veronal buffer, pH 8.6 (I=0.03). After unprecipitaded proteins where eluted and gels were dried, immunoprecipitates were stained with Coomassie blue R-250.

[10] = CMC, Coomassie blue G method of Rosenthal and Koussaie; format: physicochemical
Experimental: as §3, §4

[11] = target: T4, bacteriorhodopsin from the purple membrane of H. halobium (Halobacterium salinarum, UniProt P02945); test: Membrane protein extraction with detergents, purple membrane
T4 construct: The untrated (native) purple membrane of H. halobium; endogenous in cells; host or cells: Halobacterium halobium R1, purified purple membrane
T4 sequence (P02945 14-262): T2 sequence (P02945 14-262)
From the text: Spiroplasma melliferum B88 was cultivated and membranes were purified as described. The purple membrane of Halobium R1 was purified according to Oesterhelt and Stoeckenius (22). Pasteurella multocida was cultivated in liquid medium containing per liter 20 g of Tryptose (Difco), 1 g of glucose, 5 g of NaCl, and 2,5 g of yeast extract (Difco), pH 7.4. The cells were harvested by centrifugation and disrupted with a French press. Plasma membranes were isolated according the technique of Osborn and Munson.
In order to extract membrane proteins, 200 μl of a membrane suspension in 0.1 M Na phosphate buffer (pH 7.4) was mixed with 200 μl of detergent dissolved in water. After 90 min at room temperature, the mixture was centrifuged at 260,000 g for 15 min at 20° C. (Beckman TL-100 ultracentrifuge, TL A 100.1 rotor). The supernatant was recovered for further analysis, while the pellet was dispersed in 400 μl of 2% SDS in 50 mM Tris-HCl buffer (pH 8.0). After 60 min at room temperature, the mixture was centrifuged as above and the supernatant recovered for analysis.
It was possible to extract up to 75% of bacteriorhodopsin from the purple membrane and 40% of protein from the spiroplasmal membrane with 75 mM HECAMEG. This corresponds respectively to ratios of 9 and 26 ug of protein/μmol of detergent. The efficacy of the extraction was not improved by increasing the detergent concentration. […]

[12] = target: T5, spiralin, the main protein of the S. melliferum membrane (Spiroplasma melliferum, UniProt P21625)
T5 construct: Spiroplasma melliferum B88 was cultivated and membranes were purified as described; endogenous in cells; host or cells: Spiroplasma melliferum B88, purified membranes
T5 sequence (P21625 24-242): as above
Experimental: Since the membrane of melliferum has a complex protein composition, the protein extracted by HECAMEG was analyzed by SDS PAGE. Separation of polypeptides was performed in 100×100×4 mm gels in 40 mM Tris-20 mM Na acetate buffer (pH 7.4) containing 2 mM EDTA and 0.1% SDS. The upper gel contained 4.83% acrylamide and 0.17% bisacrylamide while the lower separating gel contained 7.72% acrylamide and 0.28% bisacrylamide. The samples contained 2% SDS and 0.12 M 2 mercaptoethanol and were heated at 60° C. for 5 min prior to electrophoresis. Bromphenol blue was used as the tracking dye. Protein bands were stained with Coomassie blue R-250 in an acetic acid/methanol/water mixture (1/4/5,v/v). […] Optimal selectivity was obtained with surfactant concentration in the 60 to 65 mM range.

[13] = Stability of HECAMEG solutions; format: physicochemical; conditions: 4° C.

CCCCCCCCCCCCOS(=O)(=O)[O-].[Na+] [SDS, sodium dodecyl sulfate, reference compound]
enzyme activity upon treatment with SDS ([1]; 35 mM SDS): completely inhibited | enzyme activity with SDS ([2]; 35 mM SDS): fully inhibited | enzyme activity with SDS ([3]; 35 mM SDS): fully inhibited | absorption maximum of bacteriorhodopsin preparation (bacteriorhodopsin; membrane solubilized with 1% SDS): 390 nm | enzyme activity upon treatment with SDS ([4]; 35 mM SDS): completely inhibited

CCCCCCCCO[C@H]1O[C@H](CO)[C@@H](O)[C@H](O)[C@H]1O [OG, n-octylα-D glucopyranoside, reference compound]
CMC [5]: 25 mM | CMC [6]: 25 mM | CMC of comparison surfactants [7]: 25 mM

CCCCCCCNC(=O)OC[C@H]1O[C@H](OC)[C@H](O)[C@@H](O)[C@@H]1O [HECAMEG, 6-0 (N-Heptylcarbamoyl) methyl α-D-glucopyranoside]
solubility in water ([8]; even at 0° C.): high solubility | solubility ([8]; usual buffers, in currant buffers, at 4° C., read-out: solubility): > 60 mg/mL | solubility ([8]; water, Tris-HCl and phosphate buffers, even at 0° C., read-out: solubility in water and usual buffers): ≥ 200000 µM | solubility in water and organic solvents ([8]; water, alcohols, methylene chloride, tetrahydrofuranne, DMSO): very soluble | inhibition of enzyme by the surfactant [1]: not inhibited | Vmax ± SD ([1]; HECAMEG 0.1%, 3 mM): 4.0 ± 0.5 µmol/min | Km ([1]; HECAMEG 0.1%, 3 mM): 12.5 ± 1.2 µM | Vmax ± SD ([1]; HECAMEG 1%, 30 mM): 10.3 ± 1.2 µmol/min and 10.3 µmol/min | Km ([1]; HECAMEG 1%, 30 mM): 3.3 ± 0.6 µM | change of affinity of the enzyme for its substrate ([1]; above the CMC (30 mM)): increased fourfold | effect on Km and Vmax below the CMC ([1]; below the CMC): neither Km nor Vmax was significantly modified | CMC [5]: 19.5 mM | critical micellar concentration (CMC) ([5]; summary value, method not named at the place): 19.5 mM and 6.5 g/l | dialysis time after which surfactant was no longer detected [9]: about 18 h | drop of concentration in the central compartment ([9]; upon 3 h of dialysis): 50% | CMC [6]: 17 mM | antigenicity of spiralin after solubilization (spiralin): remained highly antigenic | CMC [10]: 14.5 mM and 15 mM | ratio protein extracted per detergent ([11]; 75 mM HECAMEG, purple membrane): 9 ug of protein/μmol of detergent | membrane protein extraction below the CMC ([11]; concentrations below the CMC): inefficient | change of Vmax ([2]; 30 mM surfactant): decreased threefold | Vmax ± SD ([2]; HECAMEG 0.1%, 3 mM): 143 ± 16.5 µmol/min | Km ([2]; HECAMEG 0.1%, 3 mM): 62 ± 10 µM | Vmax ± SD ([2]; HECAMEG 1%, 30 mM): 30.5 ± 0.4 µmol/min | Km ([2]; HECAMEG 1%, 30 mM): 18.1 ± 0.6 µM | enzyme activity above the CMC ([2]; above the CMC): decreased | effect on enzyme below the CMC ([2]; below the CMC): apparent activation | polypeptides extracted (including spiralin) of 28 detected in the membrane ([12]; 60 to 65 mM surfactant): 12 | solubilization of the fibril protein ([12]; S. melliferum membrane): not able to solubilize the fibril protein | change of Vmax ([3]; 30 mM surfactant): increased about threefold | Vmax ± SD ([3]; HECAMEG 0.1%, 3 mM): (609 ± 30) × 10^-3 μmol/min | Vmax ± SD ([3]; HECAMEG 1%, 30 mM): (1238 ± 4) × 10^-3 μmol/min | enzyme activity above the CMC ([3]; above the CMC): increased | effect on enzyme below the CMC ([3]; below the CMC): apparent activation | stability of solutions [13]: stable for several weeks | absorption maximum (λmax) of bacteriorhodopsin (bacteriorhodopsin; upon extraction with HECAMEG): 550 nm | inhibition of enzyme by the surfactant [4]: not inhibited | Vmax ± SD ([4]; HECAMEG 0.1%, 3 mM): 163 ± 41 µmol/min | Km ([4]; HECAMEG 0.1%, 3 mM): 947 ± 52 µM | Vmax ± SD ([4]; HECAMEG 1%, 30 mM): 357 µmol/min and 357 ± 50 µmol/min | Km ([4]; HECAMEG 1%, 30 mM): 901 ± 65 µM | effect on Km and Vmax below the CMC ([4]; below the CMC): neither Km nor Vmax was significantly modified
